Tests used:
HCT-15 = format: cell-based; conditions: Homo sapiens, one dose 10^-5 M, 48 h, read-out: % growth
NCI-H226 = format: cell-based; conditions: Homo sapiens, one dose 10^-5 M, 48 h
PC-3 = format: cell-based; conditions: Homo sapiens, one dose 10^-5 M, 48 h
CAKI-1 = format: cell-based; conditions: Homo sapiens, CAKI-1, 48 h, one dose 10^-5 M, 48 h
OVCAR-4 = format: cell-based; conditions: Homo sapiens, one dose 10^-5 M, 48 h
A549/ATCC = format: cell-based; conditions: Homo sapiens, one dose 10^-5 M, 48 h
KM12 = format: cell-based; conditions: Homo sapiens, one dose 10^-5 M, 48 h
NCI-H460 = format: cell-based; conditions: Homo sapiens, one dose 10^-5 M, 48 h, read-out: % growth
SF-539 = format: cell-based; conditions: Homo sapiens, one dose 10^-5 M, 48 h
HOP-92 = format: cell-based; conditions: Homo sapiens, one dose 10^-5 M, 48 h
SNB-19 = format: cell-based; conditions: Homo sapiens, one dose 10^-5 M, 48 h, read-out: % growth
SF-295 = format: cell-based; conditions: Homo sapiens, one dose 10^-5 M, 48 h
A498 = format: cell-based; conditions: Homo sapiens, one dose 10^-5 M, 48 h
SK-MEL-28 = format: cell-based; conditions: Homo sapiens, one dose 10^-5 M, 48 h
UO-31 = format: cell-based; conditions: Homo sapiens, UO-31, 48 h, one dose 10^-5 M, 48 h
SK-OV-3 = format: cell-based; conditions: Homo sapiens, one dose 10^-5 M, 48 h
SR = format: cell-based; conditions: Homo sapiens, one dose 10^-5 M, 48 h
TK-10 = format: cell-based; conditions: Homo sapiens, one dose 10^-5 M, 48 h
NCI-H23 = format: cell-based; conditions: Homo sapiens, one dose 10^-5 M, 48 h, read-out: % growth
OVCAR-5 = format: cell-based; conditions: Homo sapiens, one dose 10^-5 M, 48 h
MCF7 = format: cell-based; conditions: Homo sapiens, one dose 10^-5 M, 48 h, read-out: % growth
OVCAR-3 = format: cell-based; conditions: Homo sapiens, one dose 10^-5 M, 48 h
OVCAR-8 = format: cell-based; conditions: Homo sapiens, one dose 10^-5 M, 48 h
MDA-MB-468 = format: cell-based; conditions: Homo sapiens, one dose 10^-5 M, 48 h
[1] = test system: full NCI 60 cell lines panel; conditions: for activity at 10 µM: Homo sapiens, 60 cell, read-out: Mean % growth; for activity on all 60 cancer cell lines tested (in words): one dose
M14 = format: cell-based; conditions: Homo sapiens, one dose 10^-5 M, 48 h
SK-MEL-5 = format: cell-based; conditions: Homo sapiens, one dose 10^-5 M, 48 h, read-out: % growth
COLO 205 = format: cell-based; conditions: Homo sapiens, one dose 10^-5 M, 48 h
U251 = format: cell-based; conditions: Homo sapiens, U-251, one dose 10^-5 M, 48 h
MOLT-4 = format: cell-based; conditions: Homo sapiens, one dose 10^-5 M, 48 h, read-out: % growth
HT29 = format: cell-based; conditions: Homo sapiens, HT-29, one dose 10^-5 M, 48 h
HCT-116 = format: cell-based; conditions: Homo sapiens, one dose 10^-5 M, 48 h, read-out: % growth
CCRF-CEM = format: cell-based; conditions: Homo sapiens, one dose 10^-5 M, 48 h
NCI/ADR-RES = format: cell-based; conditions: Homo sapiens, one dose 10^-5 M, 48 h
ACHN = format: cell-based; conditions: Homo sapiens, one dose 10^-5 M, 48 h
HL-60(TB) = format: cell-based; conditions: Homo sapiens, one dose 10^-5 M, 48 h
UACC-257 = format: cell-based; conditions: Homo sapiens, one dose 10^-5 M, 48 h
DU-145 = format: cell-based; conditions: Homo sapiens, one dose 10^-5 M, 48 h
HCC-2998 = format: cell-based; conditions: Homo sapiens, one dose 10^-5 M, 48 h
LOX IMVI = format: cell-based; conditions: Homo sapiens, one dose 10^-5 M, 48 h, read-out: % growth
EKVX = format: cell-based; conditions: Homo sapiens, one dose 10^-5 M, 48 h
SK-MEL-2 = format: cell-based; conditions: Homo sapiens, one dose 10^-5 M, 48 h
SN12C = format: cell-based, human; conditions: Homo sapiens, one dose 10^-5 M, 48 h
MALME-3M = format: cell-based; conditions: Homo sapiens, one dose 10^-5 M, 48 h
786-0 = format: cell-based; conditions: Homo sapiens, one dose 10^-5 M, 48 h
NCI-H522 = format: cell-based; conditions: Homo sapiens, one dose 10^-5 M, 48 h
MDA-MB-231/ATCC = format: cell-based; conditions: Homo sapiens, one dose 10^-5 M, 48 h
RXF 393 = format: cell-based; conditions: Homo sapiens, RXF 393, 48 h, one dose 10^-5 M, 48 h, read-out: % growth
T-47D = format: cell-based; conditions: Homo sapiens, T47D, one dose 10^-5 M, 48 h, read-out: % growth
RPMI-8226 = format: cell-based; conditions: Homo sapiens, one dose 10^-5 M, 48 h
MDA-MB-435 = format: cell-based; conditions: Homo sapiens, one dose 10^-5 M, 48 h, read-out: % growth
K-562 = format: cell-based; conditions: Homo sapiens, K562, one dose 10^-5 M, 48 h
IGROV1 = format: cell-based; conditions: Homo sapiens, IGROV-1, one dose 10^-5 M, 48 h, read-out: % growth
BT-549 = format: cell-based; conditions: Homo sapiens, one dose 10^-5 M, 48 h
HOP-62 = format: cell-based; conditions: Homo sapiens, one dose 10^-5 M, 48 h
SF-268 = format: cell-based; conditions: Homo sapiens, one dose 10^-5 M, 48 h, read-out: % growth
HS 578T = format: cell-based; conditions: Homo sapiens; one dose 10^-5 M, 48 h; HS 578T; read-out: % growth
UACC-62 = format: cell-based; conditions: Homo sapiens, one dose 10^-5 M, 48 h
SW-620 = format: cell-based; conditions: Homo sapiens, one dose 10^-5 M, 48 h

N=C(NN=Cc1ccc(Br)cc1)c1c(N)nc(S)nc1-c1ccc(Cl)cc1Cl [Compound 4q, 4-amino-N'-[(4-bromophenyl)methylene]-6–(2,4-dichlorophenyl)-2-mercapto pyrimidine-5-carboximidohydrazide]
activity at 10 µM (HCT-15): 108% | % growth at 10 µM (NCI-H226): 107% | percent cell growth at 10 µM (PC-3): 102% | % growth at 10 µM (CAKI-1): 86.9% | % growth at 10 µM (OVCAR-4): 109% | % growth at 10 µM (A549/ATCC): 98.8% | % growth at 10 µM (KM12): 100% | activity at 10 µM (NCI-H460): 110% | % growth at 10 µM (SF-539): 102% | % growth at 10 µM (HOP-92): 102% | activity at 10 µM (SNB-19): 99.2% | % cell growth at 10 µM (SF-295): 96.6% | % growth at 10 µM (A498): 129% | % cell growth at 10 µM (SK-MEL-28): 106% | % cell growth at 10 µM (UO-31): 94.2% | % growth at 10 µM (SK-OV-3): 103% | percent cell growth at 10 µM (SR): 86.7% | % cell growth at 10 µM (TK-10): 148% | activity at 10 µM (NCI-H23): 102% | percent cell growth at 10 µM (OVCAR-5): 119% | activity at 10 µM (MCF7): 90.9% | % growth at 10 µM (OVCAR-3): 104% | % growth of cells at 10 µM (OVCAR-8): 114% | percent cell growth at 10 µM (MDA-MB-468): 113% | activity at 10 µM ([1]; 48 h): 104% | activity on all 60 cancer cell lines tested (in words) [1]: weak activity | % growth at 10 µM (M14): 101% | activity at 10 µM (SK-MEL-5): 104% | % growth at 10 µM (COLO 205): 114% | % growth at 10 µM (U251): 107% | activity at 10 µM (MOLT-4): 91.4% | % growth at 10 µM (HT29): 112% | activity at 10 µM (HCT-116): 96.2% | % cell growth at 10 µM (CCRF-CEM): 96.8% | cell growth percent at 10 µM (NCI/ADR-RES): 114% | % growth at 10 µM (ACHN): 108% | % growth at 10 µM (HL-60(TB)): 96.5% | percent cell growth at 10 µM (UACC-257): 102% | % growth at 10 µM (DU-145): 108% | % growth at 10 µM (HCC-2998): 114% | activity at 10 µM (LOX IMVI): 109% | % cell growth at 10 µM (EKVX): 108% | % growth at 10 µM (SK-MEL-2): 109% | % growth at 10 µM (SN12C): 103% | % growth at 10 µM (MALME-3M): 91.2% | % growth at 10 µM (786-0): 93.8% | % growth at 10 µM (NCI-H522): 101% | % growth at 10 µM (MDA-MB-231/ATCC): 98.5% | activity at 10 µM (RXF 393): 101% | activity at 10 µM (T-47D): 110% | % growth at 10 µM (RPMI-8226): 98.8% | activity at 10 µM (MDA-MB-435): 104% | % growth at 10 µM (K-562): 92.2% | activity at 10 µM (IGROV1): 105% | % cell growth at 10 µM (BT-549): 97.7% | % growth at 10 µM (HOP-62): 101% | activity at 10 µM (SF-268): 105% | activity at 10 µM (HS 578T): 118% | % growth at 10 µM (UACC-62): 96.4% | % growth at 10 µM (SW-620): 108%

N=C(NN=Cc1ccc(Cl)cc1Cl)c1c(N)nc(S)nc1-c1ccc(Cl)cc1Cl [Compound 4r, 4-amino-6–(2,4-dichlorophenyl)-N'-[(2,4-dichlorophenyl)methylene]-2-mercapto pyrimidine-5-carboximidohydrazide]
activity at 10 µM (HCT-15): 113% | % growth at 10 µM (NCI-H226): 106% | percent cell growth at 10 µM (PC-3): 98.1% | % growth at 10 µM (CAKI-1): 109% | % growth at 10 µM (OVCAR-4): 104% | % growth at 10 µM (A549/ATCC): 102% | % growth at 10 µM (KM12): 100% | activity at 10 µM (NCI-H460): 111% | % growth at 10 µM (SF-539): 101% | % growth at 10 µM (HOP-92): 78% | activity at 10 µM (SNB-19): 94.6% | % cell growth at 10 µM (SF-295): 98.5% | % growth at 10 µM (A498): 117% | % cell growth at 10 µM (SK-MEL-28): 113% | % cell growth at 10 µM (UO-31): 92.5% | % growth at 10 µM (SK-OV-3): 105% | percent cell growth at 10 µM (SR): 92.6% | % cell growth at 10 µM (TK-10): 112% | activity at 10 µM (NCI-H23): 104% | percent cell growth at 10 µM (OVCAR-5): 117% | activity at 10 µM (MCF7): 98.9% | % growth at 10 µM (OVCAR-3): 108% | % growth of cells at 10 µM (OVCAR-8): 110% | percent cell growth at 10 µM (MDA-MB-468): 111% | activity at 10 µM ([1]; 48 h): 104% | activity on all 60 cancer cell lines tested (in words) [1]: weak activity | Mean % growth ([1]; one dose 10^-5 M, 48 h, mean over all cell lines): 103.80% | % growth at 10 µM (M14): 97.4% | activity at 10 µM (SK-MEL-5): 107% | % growth at 10 µM (COLO 205): 113% | % growth at 10 µM (U251): 105% | activity at 10 µM (MOLT-4): 100% | % growth at 10 µM (HT29): 118% | activity at 10 µM (HCT-116): 102% | % cell growth at 10 µM (CCRF-CEM): 94.9% | cell growth percent at 10 µM (NCI/ADR-RES): 111% | % growth at 10 µM (ACHN): 107% | % growth at 10 µM (HL-60(TB)): 102% | percent cell growth at 10 µM (UACC-257): 106% | % growth at 10 µM (DU-145): 108% | % growth at 10 µM (HCC-2998): 100% | activity at 10 µM (LOX IMVI): 104% | % cell growth at 10 µM (EKVX): 114% | % growth at 10 µM (SK-MEL-2): 111% | % growth at 10 µM (SN12C): 102% | % growth at 10 µM (MALME-3M): 86.5% | % growth at 10 µM (786-0): 87.5% | % growth at 10 µM (NCI-H522): 100% | % growth at 10 µM (MDA-MB-231/ATCC): 101% | activity at 10 µM (RXF 393): 119% | activity at 10 µM (T-47D): 103% | % growth at 10 µM (RPMI-8226): 106% | activity at 10 µM (MDA-MB-435): 113% | % growth at 10 µM (K-562): 100% | activity at 10 µM (IGROV1): 102% | % cell growth at 10 µM (BT-549): 91.6% | % growth at 10 µM (HOP-62): 102% | activity at 10 µM (SF-268): 101% | activity at 10 µM (HS 578T): 105% | % growth at 10 µM (UACC-62): 96.4% | % growth at 10 µM (SW-620): 105%

Reference: PMC10866072, “Design, synthesis, molecular modelling and biological evaluation of novel 6-amino-5-cyano-2-thiopyrimidine derivatives as potent anticancer agents against leukemia and apoptotic inducers” (Journal of Enzyme Inhibition and Medicinal Chemistry, 2024)
